Broadly, the inhibition is how much of the control response was suppressed. Broadly, the IC50 is the point on the concentration scale where inhibition reaches its midpoint. The low end stands for higher potency, the high end for lower potency.

The text below walks through data of patent EP0937460A2, “Use of an antidiarrheal for the manufacture of a medicament for the treatment of inflammatory conditions” (Adolor Corporation, priority 1994, dated 1995).

Structures are written as SMILES.

Holding throughout (assay type): cell-based
Test [1] relates to TNF production. Description: Inhibition of LPS-stimulated TNF production in the human monocytic cell line THP-1 (ELISA). The conditions noted are these: for TNF LEVEL % Control (LPS alone); Ave. ± S.D. / activity at 10 µM: THP-1 cells, DRUG [10 µM], LPS 1 µg/mL; for activity at 10 µM / inhibition at 10 µM: Homo sapiens; for activity at 10 µM: 6 h, read-out: TNF LEVEL % Control (LPS alone), Ave. ± S.D.; for inhibition at 10 µM / effectiveness against LPS-stimulated TNF production (in words): LPS-stimulated THP-1 cells; for inhibition at 10 µM: drug 10 µM, read-out: inhibition of TNF production; for effectiveness against LPS-stimulated TNF production (in words): 10 µM. Here is the method:
Cultures were maintained by the addition of fresh growth medium to a T-75 or T-150 flask of cells in suspension, or by pelleting the cells and re-suspending them in the appropriate volume of fresh medium. Maximum cell density was 1.0 x 10^6 cells per mL and cultures were seeded at a minimum density of 0.2 x 10^6 cells per ml.
THP-1 cells were plated into 24-well plates at a density of 1.0 x 10^6 cells per mL in 0.5 mL medium per well. […] For measurement of IL-1α and IL-1β production, THP-1 cells were incubated with 500 ng/mL or 50 ng/mL LPS and incubated for 16 hours. Levels of secreted cytokine were measured in cell supernatants as for TNF. Cell-associated species were measured in cell lysates which were prepared by repetitive freeze-thawing of cells. For in vitro screening, drugs at 10 µM concentration were co-administered with LPS. […] Drug effects on cell viability were assessed by the MTT assay. […] Water-soluble drugs were dissolved in aqueous solutions such as RPMI or deionized H20. The final concentration of DMSO in the incubation medium was at or below 0.01% and that of ethanol was at or below 0. 1%. The effect on cell viability was evaluated by the MTT assay.
On the technique in general: ELISA stands for enzyme-linked immunosorbent assay.

Test [2] relates to TNF production. The experiment in a line: Inhibition of LPS-stimulated TNF production in the mouse macrophage line RAW 264.7 (ELISA). As to conditions: RAW cells; for TNF LEVEL % Control (LPS alone); Ave. ± S.D. / activity at 10 µM: DRUG [10 µM], LPS at 10 ng/mL; for activity at 10 µM: RAW264.7, 6 h, read-out: TNF LEVEL % Control (LPS alone), Ave. ± S.D.; for inhibition at 10 µM: LPS 10 ng/mL, read-out: inhibition of LPS-stimulated TNF secretion. Here is the method: Cells were passaged at confluence by scraping and routinely plated at a density of 0.25 x 10^6 and 0.5 x 10^6 cells per T-75 and T-150, respectively.
Typically, RAW cells were plated at 0.25 x 10^6 cells per well of a 24-well plate, in 0.5 mL media per well on the day prior to experimentation. […] 1%. Drugs were co-administered with the stimulant, LPS. After a 6-hr incubation period with LPS ± drug (n = 3-4), the media from the experimental wells was harvested, the cells were removed by microcentrifugation, and the media assayed for TNF by ELISA. Drugs were screened at 10 µM for their ability to alter TNF production by cells stimulated with 1 µg/mL or 10 ng/mL LPS. Dexamethasone, an anti-inflammatory corticosteroid, served as the reference for inhibition of the LPS response.

Test [3] deals with TNF production. The experiment in a line: Inhibition of TPA-stimulated TNF production in human epidermal keratinocytes (ELISA). The conditions noted are these: for activity at 10 µM: epidermal keratinocytes, read-out: TNF LEVEL % Control (LPS alone), Ave. ± S.D.
The mark [4] stands for this setting: Homo sapiens, HEK cells, DRUG [10 µM], stimulation by TPA 10 ng/mL.
The mark [5] stands for this setting: Mus musculus, RAW264.7, drug 10 µM.

For the compound `COc1ccc(CCN(C)CCC[C@](C#N)(c2ccc(OC)c(OC)c2)C(C)C)cc1OC` [(+)-Verapamil, (+)-verapamil], the “TNF LEVEL % Control (LPS alone); Ave. ± S.D.” value (from here on “TNF LEVEL % Control”) in test [1] turned out to be 51±2 % Control.
In the case of `COc1ccc(CCN(C)CCC[C@@](C#N)(c2ccc(OC)c(OC)c2)C(C)C)cc1OC` [(-)-Verapamil, (-)-verapamil], in test [1], the “TNF LEVEL % Control” value came to 53±3 % Control.
For `NCC(O)c1ccc(O)c(O)c1` (stereo not shown) [Arterenol], the “TNF LEVEL % Control” value in test [1] was 1±0.2 % Control; in test [2], 38±4 % Control; in test [3] (HEK cells, DRUG [10 µM], stimulation by TPA 10 ng/mL) it was 47±10 % Control.
For the compound `CC(C)COCC(CN(Cc1ccccc1)c1ccccc1)N1CCCC1` (stereo not shown) [Bepridil, 1-Pyrrolidieneethanamine, b-[(2-methylpropoxy)methyl]-N-phenyl-N-(phenylmethyl)], the values for the activity at 10 µM in test [1] and in test [2] (Mus musculus) were 77 ± 9% and 40 ± 4%, respectively.
With `C[C@@H]1C[C@H]2[C@@H]3CCC4=CC(=O)C=C[C@]4(C)[C@@]3(F)[C@@H](O)C[C@]2(C)[C@@]1(O)C(=O)CO` [Dexamethasone, dexamethasone], the activity at 10 µM amounted to 33 ± 14% in test [1], 39 ± 27% in test [2] (Mus musculus) and 48 ± 12% in test [3] (setting [4]). The inhibition at 10 µM in test [1] is 67%; in test [3] (Homo sapiens, Keratinocyte, keratinocytes, TPA 10 ng/mL, drug 10 µM, read-out: inhibition of the response to TPA (TNF production)), greater than 55%. The “inhibition of the stimulated production of TNF (decrease of secreted TNF vs LPS alone)” value in test [2] (drug 10 µM, LPS dose not stated) is 60%.
For the compound `COc1ccc([C@@H]2Sc3ccccc3N(CCN(C)C)C(=O)[C@@H]2OC(C)=O)cc1` [Diltiazem, 1,5-Benzothiazepin-4(5H)-one, 3-(acetyloxy)-5-[2-(dimethylamino)ethyl]-2,3-dihydro-2-(4-methoxyphenyl)-, (2S-cis)-], the activity at 10 µM in test [1] stood at 86 ± 16%; in test [2] (Mus musculus) it was 47 ± 1%. Also, the “effectiveness against LPS-stimulated TNF production (in words)” value (from here on “effectiveness”) in test [1] was “much less effective”.
Take `CCOC(=O)C1(c2ccccc2)CCN(CCC(C#N)(c2ccccc2)c2ccccc2)CC1` [Diphenoxylate, diphenoxylate]: the activity at 10 µM in test [3] (Homo sapiens) amounted to 68 ± 10%.
For the compound `NS(=O)(=O)c1cc(C(=O)O)c(NCc2ccco2)cc1Cl` [Furosemide, benzoic acid, 5-(aminosulfonyl)-4-chloro-2-[(2-furanylmethyl)amino]-], in test [2] (Mus musculus), the activity at 10 µM is 49 ± 4%. Further, in test [2] (setting [5]), the inhibition at 10 µM is roughly 49%. Further, in test [2] (drug 10 µM), the “effectiveness” value is “comparable to amiloride”.
As for `COC(=O)C1=C(C)NC(C)=C(C(=O)OC(C)C)C1c1cccc2nonc12` (stereo not shown) [Isradipine, 3,5-Pyridinecarboxylic acid, 4-(4-benzofurazanyl)-l,4-dihydro-2,6-dimethyl, methyl 1-methylethyl ester], the activity at 10 µM stood at 77 ± 8% in test [1] and 60 ± 7% in test [3] (setting [4]). Further, the “effectiveness” value in test [1] is on record as “much less effective”; in test [2] (drug 10 µM) it was “as effective as dexamethasone”.
In the case of `COC(=O)C1=C(C)NC(C)=C(C(=O)OCCN(C)Cc2ccccc2)C1c1cccc([N+](=O)[O-])c1` (stereo not shown) [Nicardipine, 3,5-Pyridinedicarboxylic acid, 1,4-dihydro-2,6-dimethyl-4-(3-nitrophenyl)-, methyl 2-[methyl(phenylmethyl)amino]ethyl ester], in test [1], the activity at 10 µM stood at 44 ± 1% and the inhibition at 10 µM was found to be 56%. Besides, the activity at 10 µM in test [2] (Mus musculus) was 59 ± 35%.
`COC(=O)C1=C(C)NC(C)=C(C(=O)OC)C1c1ccccc1[N+](=O)[O-]` [Nifedipine]: the activity at 10 µM was found to be 119% in test [1], 79 ± 24% in test [2] (Mus musculus) and 88 ± 40% in test [3] (setting [4]).
`COCCOC(=O)C1=C(C)NC(C)=C(C(=O)OC(C)C)C1c1cccc([N+](=O)[O-])c1` (stereo not shown) [Nimodipine, nimodipine]: the results for the activity at 10 µM in test [1], in test [2] (Mus musculus) and in test [3] (setting [4]) were 81 ± 4%, 37 ± 3% and 15 ± 3%, respectively.
For `CC(=O)CCCCn1c(=O)c2c(ncn2C)n(C)c1=O` [Pentoxifylline, pentoxifylline], the activity at 10 µM in test [1] was no less than 100%; in test [2] (Mus musculus) it was 43 ± 2%. In addition, in test [2] (setting [5]), the inhibition at 10 µM worked out at 57%.
Take `CCCCOc1cc(CC2CNC(=O)N2)ccc1OC` (stereo not shown) [RO 20-1724]: the inhibition at 10 µM was found to be 55% in test [1] and 47% in test [2] (setting [5]). For the same compound, the “TNF LEVEL % Control” value in test [1] is 45±34 % Control; in test [2], 47±23 % Control. In test [2] (Mus musculus, RAW264.7), the IC50 was in the range of 1 to 10 nM.
`COC(=O)C1=C(C)NC(C)=C(C(=O)OC(C)(C)CN(C)CCC(c2ccccc2)c2ccccc2)C1c1cccc([N+](=O)[O-])c1` (stereo not shown) [Rec 15/2375]: the figures for the “TNF LEVEL % Control” value in test [1] and in test [2] were 57±15 % Control and 33± 1 % Control, respectively.
With `CC(=O)S[C@@H]1CC2=CC(=O)CC[C@]2(C)[C@H]2CC[C@@]3(C)[C@@H](CC[C@@]34CCC(=O)O4)[C@H]12` [Spironolactone, spironolactone], in test [1], the activity at 10 µM is 54 ± 8%, the inhibition at 10 µM was 46% and the “effectiveness” value is listed as “as effective as amiloride”.
On to `CC(C)(C)NCC(O)c1cc(O)cc(O)c1` (stereo not shown) [Terbutaline, terbutaline], for which the activity at 10 µM stood at 12 ± 4% in test [1], 33 ± 9% in test [2] (Mus musculus) and 36 ± 8% in test [3] (setting [4]).
Take `O=C1CCC(N2C(=O)c3ccccc3C2=O)C(=O)N1` (stereo not shown) [Thalidomide]: the activity at 10 µM in test [1] was 78 ± 9%; in test [2] (Mus musculus), 67 ± 37%; in test [3] (setting [4]) it was no less than 100%.
Consider `NCCCCCCNS(=O)(=O)c1cccc2c(Cl)cccc12` [W-7], for which the inhibition at 10 µM in test [1] was 40 to 50%.
As for `CCCCNc1cc(C(=O)O)cc(S(N)(=O)=O)c1Oc1ccccc1` [bumetanide], the “effectiveness” value in test [2] (drug 10 µM) was “minimal inhibition”.
For the compound `Clc1ccc(C(c2ccc(Cl)cc2)n2cc[n+](CC(OCc3ccc(Cl)cc3Cl)c3ccc(Cl)cc3Cl)c2)cc1` (stereo not shown) [calmidazolium], in test [1], the inhibition at 10 µM was 40 to 50%.
As for `CN(C)c1nc(N)c(C(=O)N=C(N)N)nc1Cl` [dimethylamiloride], in test [2] (drug 10 µM), the “effectiveness” value is “same extent of inhibition as amiloride”.
As for `O=C1c2c(O)cccc2Cc2cccc(O)c21` [dithranol], in test [2] (setting [5]), the inhibition at 10 µM came out at 67%.
On the same count and under the same terms, the value for `Fc1ccc(C(c2ccc(F)cc2)N2CCN(C/C=C/c3ccccc3)CC2)cc1` [flunarizine, Peperizine, 1-[bis(4-fluorophenyl)methyl]-4-(3-phenyl-2-propenyl)-, (E)] was 63%.
On to `NC(N)=NC(=O)c1nc(Cl)c(N2CCCCCC2)nc1N` [hexamethylamiloride], for which the “effectiveness” value in test [2] (drug 10 µM) is recorded as “tremendous decrease”. Further, the “effect on TPA-stimulated levels of TNF (in words)” value in test [3] (human keratinocytes, TPA 10 ng/mL, drug 10 µM) is “several fold higher”.
For `COc1ccc2c(c1)CCC(c1ccccc1)=C2c1ccc(OCCN2CCCC2)cc1` [nafoxidine], in test [2] (setting [5]), the inhibition at 10 µM was roughly 65%.
Same read-out and setting: the same measure for `O=c1[nH]c2ccccc2n1C1CCN(CCCC(c2ccc(F)cc2)c2ccc(F)cc2)CC1` [pimozide]: 60 to 70%; for `CC/C(=C(\c1ccccc1)c1ccc(OCCN(C)C)cc1)c1ccccc1` [tamoxifen]: roughly 65%.
For the compound `CSc1ccc2c(c1)N(CCC1CCCCN1C)c1ccccc1S2` (stereo not shown) [thioridazine], the inhibition at 10 µM in test [2] (setting [5]) lay within 60 to 70%.
